Assay results reported in paper PMC9518609, “Design and synthesis of new trimethoxylphenyl-linked combretastatin analogues loaded on diamond nanoparticles as a panel for ameliorated solubility and antiproliferative activity” (Journal of Enzyme Inhibition and Medicinal Chemistry, 2022).

Legend:
Assay type in all cases: cell-based
MDA-MB-231 = experiment: MTT cytotoxic activity against breast MDA-MB-231 cancer cell line; conditions: Homo sapiens, MDA-MB-231; MTT assay, 24 h treatment
From the text: (§1) All the synthesised compounds were screened for their cytotoxic activity against breast MDA-MB-231 cancer cell line and compounds 6 and 12 against breast MCF-10A cell line taking CA-4 as a positive control for the analysis. The in vitro cytotoxicity results of the prepared compounds were systematised in Table 1. […] Structurally, the prepared molecules contain three structural variations; including rotatable hydrazide derivatives, the core exchange with imidazolone ring, and the ring expansion with triazinone motif. […] It is noticed that directly attached benzene ring to triazinone scaffold (compound 6) or bioisosteric group (thiazolyl ester) as in compound 12, may contribute to the astonishing cytotoxicity against breast MDA-MB-231 cancer cells.
To measure the cytotoxic activity of the synthesised derivatives 2a–13e in breast cancer (MDA-MB-231) cell line. MTT assay method was applied to assess cell viability assay. All experimental steps were conducted as reported earlier.
(§2) Part I: Biological Studies
(§3) 4.3. Biological evaluation
(§4) 4.3.1. Cytotoxic activity evaluation
(§5) The cytotoxic actvity of the synthesized derivatives 2a-13e was measured in MDA-MB-231 breast cancer cell line and derivatives 6 and 12 in MCF-10A […].
(§6) Cell viability assay was assessed using MTT assay method. Cells at density of 1 x 104 were seeded in a 96-well plate at 37 °C for 24 h under 5% CO2. After incubation, the cells were treated with different concentrations of the test schiff bases 2a-13e and incubated for 24 h, then 20 µl of MTT solution at 5 mg/mL was applied and incubated for 4 h at 37 °C.
Dimethyl sulphoxide (DMSO) in volume of 100 µl was added to each well to dissolve the purple formazan that had formed. The color intensity of the formazan product, which represents the growth condition of the cells, is quantified by using an ELISA plate reader (EXL 800, USA) at 570 nm absorbance. The experimental conditions were carried out with at least three replicates, and the experiments were repeated at least three times. […]

MCF-10A = experiment: MTT cytotoxic activity against breast MCF-10A cell line; conditions: Homo sapiens, MCF-10A; MTT assay, 24 h treatment
From the text: as §1, §2, §3, §4, §5, §6
Dimethyl sulphoxide (DMSO) in volume of 100 µl was added to each well to dissolve the purple formazan that had formed. The color intensity of the formazan product, which represents the growth condition of the cells, is quantified by using an ELISA plate reader (EXL 800, USA) at 570 nm absorbance. […]
(§7) Compounds 6, 12 and CA-4 were evaluated for their tubulin inhibitory activity according to manufacturer’s instructions using # abcam Human Beta-tubulin simplestep ELISA Kit ab245722. MDA-MB-231 cells were trypsinized, counted and seeded at the 2 × 105 into 96-well micro titer plates. […]
(§8) (O.D.) was measured at 450±10 nm using microplate reader (Spectromax Plus 96 well plate […]

β-tubulin = β-tubulin polymerisation inhibition assay (Human Beta-tubulin ELISA kit) on MDA-MB-231 cells; conditions: MDA-MB-231 cell line, each compound at its IC50 concentration
Description: Trimethoxy phenyl fragment-containing natural stilbenoid-derived molecules, such as Colchicine and CA-4 bind to β-tubulin subunit at the colchicine binding site resulting in inhibition of microtubule assembly and suppression of its formation. […] From the obtained results it can be concluded that the antiproliferative activity of the synthesised triazinone-linked CA-4 derivatives may be derived from the inhibition of microtubule assembly.
Triazinone derivatives 6 and 12 were assessed for their tubulin inhibitory activity according to manufacturer’s instructions using # abcam Human Beta-tubulin simple step ELISA Kit ab245722.
as §2, §3, §4, §5, §6
Dimethyl sulphoxide (DMSO) in volume of 100 µl was added to each well to dissolve the purple formazan that had formed. The color intensity of the formazan product, which represents the growth condition of the cells, is quantified by using an ELISA plate reader (EXL 800, USA) at 570 nm absorbance. The experimental conditions were carried out with at least three replicates, and the experiments were repeated at least three times.
4.3.2. Tubulin inhibitions Assay
as §7, §8

COc1ccc(/C=C\c2cc(OC)c(OC)c(OC)c2)cc1O [CA-4, Combretastatin-A4, reference compound]
IC50 (MDA-MB-231): 0.55 ± 0.09 µM | IC50 (MCF-10A): 8.91 ± 0.71 µM | % Inhibition of β-tubulin polymerisation (β-tubulin): 87.05 ± 0.08%
